pIC50: −log10 of the molar value.
Molecular target: HIV-1 pNL4-3 integrase (Human immunodeficiency virus type 1 group M subtype B (isolate NY5) (HIV-1), UniProt P12497)
Assay: Determination of enzyme (HIV integrase) inhibitory activity
Format: biochemical
Settings: calculated from inhibition rate (fluorescence)
Protocol: The following explains evaluation methods of the HIV integrase inhibitory activity of the compound of the present invention.
A full-length gene sequence (Accession No.: M19921) of HIV-1 pNL4-3 integrase was inserted into restriction enzyme Nde I and Xho I sites of plasmid pET21a(+) (manufactured by Novagen) to construct an integrase expression vector pET21a-IN-Wild type.
Escherichia coli recombinant BL21(DE3) transformed with plasmid pET21a-IN-Wild type obtained in (i) was shake cultured at 30° C. in a liquid medium containing ampicillin. When the culture reached the logarithmic growth phase, isopropyl-β-D-thiogalactopyranoside was added to promote expression of integrase gene. The culture was continued for 5 hr to promote accumulation of the integrase protein. The recombinant E. coli was collected in pellets by centrifugal separation and preserved at −80° C.
This Escherichia coli was suspended in Lysis buffer (50 mM Tris-HCl (pH 7.6), 10 mM MgCl2, 5 mM DTT), and disrupted by repeating treatments of pressurization and depressurization, and insoluble fraction was collected by centrifugation at 4° C., 18,000 rpm for 60 min. This was suspended in Lysis buffer containing a protease inhibitor, […] and 10 mM CHAPS were added, and the mixture was stirred at 4° C. for 30 min. Water-soluble fraction was collected by centrifugation at 4° C., 9,000 rpm for 30 min. The obtained fraction was diluted with a column buffer (50 mM Tris-HCl (pH 7.6), 1 mM DTT, 10% Glycerol, 10 mM CHAPS) to 5-fold, and the mixture was applied to heparin column (HiPrep 16/10 Heparin FF column: manufactured by GE Healthcare Bio-Sciences). Using a column buffer containing 1M NaCl, a protein was eluted with 0-1M NaCl concentration gradient, and an eluted fraction containing an integrase protein was collected. The obtained fraction was diluted 5-fold with a column buffer (50 mM Tris-HCl (pH 7.6), 1 mM DTT, 10% Glycerol, 10 mM CHAPS), and the mixture was applied to cation exchange column (Mono-S column: manufactured by GE Healthcare Bio-Sciences). Using a column buffer containing 1M NaCl, a protein was eluted with 0-1M NaCl concentration gradient, and an eluted fraction containing an integrase protein was collected. The obtained fractions of the integrase protein were collected, and preserved at −80° C.
The following DNA synthesized by FASMAC was dissolved in TE buffer (10 mM Tris-hydrochloric acid (pH 8.0), 1 mM EDTA) and mixed with donor DNA, target DNA, and each complementary strand (+ and − strands) to 1 μM. The mixture was heated at 95° C. for 5 min, 80° C. for 10 min, 70° C. for 10 min, 60° C. for 10 min, 50° C. for 10 min and 40° C. for 10 min and kept at 25° C. to give a double stranded DNA, which was used for the test.
Donor DNA (+strand having biotin attached to the 5′ terminal)
Target DNA (+, − strands both having digoxigenin attached to the 3′ terminal)
The donor DNA was diluted with TE buffer to 20 nM, of which 50 μL was added to each well of streptavidin-coated black plate (manufactured by PIAS Corporation) and allowed to adsorb at 37° C. for 20 min. The plate was washed with phosphate buffer (Dulbecco's PBS, Sanko Junyaku Co., Ltd.) containing 0.1% Tween 20 and phosphate buffer. Then, an enzyme reaction mixture (70 μL), a test substance (10 μL) diluted with the enzyme reaction mixture and 0.75 μM integrase protein (10 μL) were added to each well and the mixture was reacted at 37° C. for 60 min. composition of enzyme reaction mixture: 30 mM MOPS (3-morpholinopropanesulfonic acid), 5 mM magnesium chloride, 3 mM DTT (dithiothreitol), 0.1 mg/mL BSA (bovine serum albumin), 5% glycerol, 10% DMSO (dimethyl sulfoxide), 0.01% Tween 20.
Then, 25 nM target DNA (10 μL) was added, and the mixture was reacted at 37° C. for 20 min and washed with phosphate buffer containing 0.1% Tween 20 to stop the reaction. […]

SMILES	pIC50
CC(C)N1C[C@](C)(C(=O)N2CCC2)n2cc(-c3nnc(Cc4ccc(F)cc4)s3)c(=O)c(O)c2C1=O [Example 2]	7.89
CCC(=O)N(C)CC1(C)CN(C(C)C)C(=O)c2c(O)c(=O)c(-c3ncc(Cc4ccc(F)cc4F)s3)cn21 (centres unmarked) [Example 7]	7.89
CC(C)N1CC2(CCOCC2)n2cc(-c3nnc(Cc4ccc(F)cc4F)s3)c(=O)c(O)c2C1=O [Example 8]	8.05
COCC1CN(C(C)C)C(=O)c2c(O)c(=O)c(-c3nnc(Cc4ccc(F)cc4F)s3)cn21 (centres unmarked) [Example 18]	8.09
CC(C)N1CC(CO)n2cc(-c3ncc(Cc4ccc(F)cc4F)s3)c(=O)c(O)c2C1=O (centres unmarked) [Example 19]	8.09
CC(C)N1CC(C)(CO)n2cc(-c3ncc(Cc4ccc(F)cc4F)s3)c(=O)c(O)c2C1=O (centres unmarked) [Example 20]	7.77
CC(C)N1CC(CC(=O)N(C)C)n2cc(-c3ncc(Cc4ccc(F)cc4F)s3)c(=O)c(O)c2C1=O (centres unmarked) [Example 21]	8.03
CNC(=O)C1CN(C(C)C)C(=O)c2c(O)c(=O)c(-c3ncc(Cc4ccc(F)cc4F)s3)cn21 (centres unmarked) [Example 22]	8.15
CC(C)N1CC(C(=O)O)n2cc(-c3ncc(Cc4ccc(F)cc4F)s3)c(=O)c(O)c2C1=O (centres unmarked) [Example 23]	7.92
CC(C)N1CC(C)(C(=O)O)n2cc(-c3ncc(Cc4ccc(F)cc4F)s3)c(=O)c(O)c2C1=O (centres unmarked) [Example 24]	7.64
CCNC(=O)C1CN(C(C)C)C(=O)c2c(O)c(=O)c(-c3ncc(Cc4ccc(F)cc4F)s3)cn21 (centres unmarked) [Example 25]	7.96
CC(C)N1CC(C(=O)N(C)C)n2cc(-c3ncc(Cc4ccc(F)cc4F)s3)c(=O)c(O)c2C1=O (centres unmarked) [Example 26]	8.12
CCNC(=O)C1(C)CN(C(C)C)C(=O)c2c(O)c(=O)c(-c3ncc(Cc4ccc(F)cc4F)s3)cn21 (centres unmarked) [Example 27]	8.00
CC(C)N1CC(C)(C(=O)N(C)C)n2cc(-c3ncc(Cc4ccc(F)cc4F)s3)c(=O)c(O)c2C1=O (centres unmarked) [Example 28]	7.82
CNC(=O)C1(C)CN(C(C)C)C(=O)c2c(O)c(=O)c(-c3ncc(Cc4ccc(F)cc4F)s3)cn21 (centres unmarked) [Example 29]	8.00
O=C1c2c(O)c(=O)c(-c3nnc(Cc4ccc(F)cc4F)s3)cn2C2(CCOCC2)CN1C1CC1 [Example 30]	8.05
CC(C)NC(=O)C1CN(C(C)C)C(=O)c2c(O)c(=O)c(-c3ncc(Cc4ccc(F)cc4F)s3)cn21 (centres unmarked) [Example 31]	8.08
CC(C)CNC(=O)C1CN(C(C)C)C(=O)c2c(O)c(=O)c(-c3ncc(Cc4ccc(F)cc4F)s3)cn21 (centres unmarked) [Example 32]	8.11
CC(C)N1CC(CC(=O)O)n2cc(-c3ncc(Cc4ccc(F)cc4F)s3)c(=O)c(O)c2C1=O (centres unmarked) [Example 33]	8.21
CNC(=O)CC1CN(C(C)C)C(=O)c2c(O)c(=O)c(-c3ncc(Cc4ccc(F)cc4F)s3)cn21 (centres unmarked) [Example 34]	8.09
CC(C)N1CC(CC(N)=O)n2cc(-c3ncc(Cc4ccc(F)cc4F)s3)c(=O)c(O)c2C1=O (centres unmarked) [Example 35]	8.17
CC(C)NC(=O)CC1CN(C(C)C)C(=O)c2c(O)c(=O)c(-c3ncc(Cc4ccc(F)cc4F)s3)cn21 (centres unmarked) [Example 36]	7.89
CC(C)N1C(=O)c2c(O)c(=O)c(-c3nnc(Cc4ccc(F)cc4F)s3)cn2CC1CO (centres unmarked) [Example 37]	8.20
CC(C)N1CC(C)(C(=O)N2CCCCC2)n2cc(-c3ncc(Cc4ccc(F)cc4F)s3)c(=O)c(O)c2C1=O (centres unmarked) [Example 38]	7.92
CC(C)N1CC(C)(C(=O)N2CCCC2)n2cc(-c3ncc(Cc4ccc(F)cc4F)s3)c(=O)c(O)c2C1=O (centres unmarked) [Example 39]	8.00
CC(C)CNC(=O)CC1CN(C(C)C)C(=O)c2c(O)c(=O)c(-c3ncc(Cc4ccc(F)cc4F)s3)cn21 (centres unmarked) [Example 40]	7.89
CC(C)N1CC(CC(=O)N2CCCCC2)n2cc(-c3ncc(Cc4ccc(F)cc4F)s3)c(=O)c(O)c2C1=O (centres unmarked) [Example 41]	8.14

SMILES	pIC50
COCC1Cn2cc(-c3nnc(Cc4ccc(F)cc4F)s3)c(=O)c(O)c2C(=O)N1C(C)C (centres unmarked) [Example 42]	8.47
COCC1Cn2cc(-c3nnc(Cc4ccc(F)cc4F)s3)c(=O)c(O)c2C(=O)N1CC(C)C (centres unmarked) [Example 43]	8.34
COCCOC[C@H]1CN(C(C)C)C(=O)c2c(O)c(=O)c(-c3nnc(Cc4ccc(F)cc4F)s3)cn21 [Example 44]	8.09
COCCOC[C@H]1CN(CC(C)C)C(=O)c2c(O)c(=O)c(-c3nnc(Cc4ccc(F)cc4F)s3)cn21 [Example 45]	7.96
COCCOC[C@@H]1CN(C(C)C)C(=O)c2c(O)c(=O)c(-c3nnc(Cc4ccc(F)cc4F)s3)cn21 [Example 46]	7.96
COCCOC[C@@H]1CN(CC(C)C)C(=O)c2c(O)c(=O)c(-c3nnc(Cc4ccc(F)cc4F)s3)cn21 [Example 47]	7.92
COCCOC[C@@H]1Cn2cc(-c3nnc(Cc4ccc(F)cc4F)s3)c(=O)c(O)c2C(=O)N1CC(C)C [Example 48]	8.16
CC(C)N1CC(CC#N)n2cc(-c3ncc(Cc4ccc(F)cc4F)s3)c(=O)c(O)c2C1=O (centres unmarked) [Example 49]	8.29
CC(C)N1C(=O)c2c(O)c(=O)c(-c3nnc(Cc4ccc(F)cc4F)s3)cn2CC1C(=O)O (centres unmarked) [Example 50]	8.19
CNC(=O)C1Cn2cc(-c3nnc(Cc4ccc(F)cc4F)s3)c(=O)c(O)c2C(=O)N1C(C)C (centres unmarked) [Example 51]	8.24
CC(C)N1CC(C)(C(=O)N2CCOCC2)n2cc(-c3ncc(Cc4ccc(F)cc4F)s3)c(=O)c(O)c2C1=O (centres unmarked) [Example 52]	7.89
CC(C)N1C(=O)c2c(O)c(=O)c(-c3nnc(Cc4ccc(F)cc4F)s3)cn2CC1C(=O)N(C)C (centres unmarked) [Example 53]	8.00
COCCOC[C@@H]1Cn2cc(-c3nnc(Cc4ccc(F)cc4F)s3)c(=O)c(O)c2C(=O)N1C(C)C [Example 54]	8.12
COCCOC[C@H]1Cn2cc(-c3nnc(Cc4ccc(F)cc4F)s3)c(=O)c(O)c2C(=O)N1CC(C)C [Example 55]	7.68
COCCOC[C@H]1CN(C(C)C)C(=O)c2c(O)c(=O)c(-c3ncc(Cc4ccc(F)cc4F)s3)cn21 [Example 56]	8.00
COCCOC[C@H]1CN(CC(C)C)C(=O)c2c(O)c(=O)c(-c3ncc(Cc4ccc(F)cc4F)s3)cn21 [Example 57]	7.96
COCCOC[C@H]1Cn2cc(-c3ncc(Cc4ccc(F)cc4F)s3)c(=O)c(O)c2C(=O)N1CC(C)C [Example 58]	7.77
COCCOC[C@H]1Cn2cc(-c3ncc(Cc4ccc(F)cc4F)s3)c(=O)c(O)c2C(=O)N1C(C)C [Example 59]	7.92
COCCOC[C@H]1Cn2cc(-c3nnc(Cc4ccc(F)cc4F)s3)c(=O)c(O)c2C(=O)N1C(C)C [Example 60]	7.77
COCC1Cn2cc(-c3ncc(Cc4ccc(F)cc4F)s3)c(=O)c(O)c2C(=O)N1C(C)C (centres unmarked) [Example 61]	8.18
COCC1Cn2cc(-c3ncc(Cc4ccc(F)cc4F)s3)c(=O)c(O)c2C(=O)N1CC(C)C (centres unmarked) [Example 62]	8.04
COCC1CN(CC(C)C)C(=O)c2c(O)c(=O)c(-c3nnc(Cc4ccc(F)cc4F)s3)cn21 (centres unmarked) [Example 63]	8.08
CC(C)N1C(=O)c2c(O)c(=O)c(-c3nnc(Cc4ccc(F)cc4F)s3)cn2CC1C#N (centres unmarked) [Example 64]	8.21
CC(C)N1CC(CN2C(=O)c3ccccc3C2=O)n2cc(-c3ncc(Cc4ccc(F)cc4F)s3)c(=O)c(O)c2C1=O (centres unmarked) [Example 65]	7.89
CC(C)N1CC(CN)n2cc(-c3ncc(Cc4ccc(F)cc4F)s3)c(=O)c(O)c2C1=O (centres unmarked) [Example 66]	8.19
CC(=O)NCC1CN(C(C)C)C(=O)c2c(O)c(=O)c(-c3ncc(Cc4ccc(F)cc4F)s3)cn21 (centres unmarked) [Example 67]	8.12
